Measurements taken from patent US10030016B2 (Sunesis Pharmaceuticals, Inc., priority 2009, dated 2018).
pEC50, pIC50: −log10 of the molar value.

What was measured:
[1] = tested on: phospho-akt (Thr308) in PC-3 cells; assay: Inhibition of phospho-akt (Thr308) in PC-3 cells, MSD phospho-akt 308 ELISA kit; assay type: cell-based; details: Homo sapiens; inhibition of P308 Akt in PC-3 cells using MSD, 2 hours, no serum; read-out: EC50
Method in brief: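 PC-3 cells were seeded overnight in growth medium with 10% FBS, then exposed to compound serially diluted threefold in serum-free medium for 2 hours. Lysates were captured overnight at 4 degrees on MSD plates and phospho-Akt Thr308 was detected electrochemiluminescently, against DMSO high and 5 μM wortmannin low controls.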

PDK1 = PDK1 (Homo sapiens (Human), UniProt O15530); assay: PDK1 kinase assay (coupled PDK1/AKT/FAM-crosstide assay, IMAP fluorescence polarization); assay type: biochemical; details: inhibition of PDK1 in vitro
Method in brief: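 Inhibition is derived by 4-parameter fitting of ΔmP from an IMAP fluorescence polarization read of FAM-crosstide (100 nM) phosphorylation. The cascade ran 30 min at 25 °C with 40 μM ATP, using insect-cell GST-PDK1 51-359 (0.75 nM) driving 10 nM unphosphorylated AKT2 140-467-PIFtide fusion.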

Chain of PDK1 (O15530 51-359): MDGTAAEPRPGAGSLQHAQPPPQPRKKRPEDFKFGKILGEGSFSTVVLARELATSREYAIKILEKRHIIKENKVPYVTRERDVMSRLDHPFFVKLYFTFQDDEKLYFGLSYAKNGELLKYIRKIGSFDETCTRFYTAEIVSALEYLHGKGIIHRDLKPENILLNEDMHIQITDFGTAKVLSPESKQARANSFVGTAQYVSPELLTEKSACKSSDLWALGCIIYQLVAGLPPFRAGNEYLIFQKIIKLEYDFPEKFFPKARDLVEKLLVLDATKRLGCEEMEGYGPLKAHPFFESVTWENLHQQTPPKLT

Row | Compound | pEC50 [1] | pIC50 (PDK1)
1 | Nc1ccc(-c2ccc(CNc3nccc4ncn(Cc5ccc(F)c(F)c5)c(=O)c34)cc2)cn1 [Example 374, 5-(4-(6-aminopyridin-3-yl)benzylamino)-3-(3,4-difluorobenzyl)pyrido[4,3-d] pyrimidin-4(3H)-one] | 5.00 to 6.00 | > 7.00
2 | Nc1ccc(-c2ccc(CNc3ncccc3C(=O)Nc3ccc(F)cc3)cc2)cn1 [Example 375, 2-(4-(6-aminopyridin-3-yl)benzylamino)-N-(4-fluorophenyl)nicotinamide] | 5.00 to 6.00 | 5.30 to 6.00
3 | N#Cc1cnc(NCc2ccc(-c3cnc(N)cn3)cc2)c(C(=O)NCc2ccc(F)c(F)c2)c1 [Example 377, 2-(4-(5-aminopyrazin-2-yl)benzylamino)-5-cyano-N-(3,4-difluorobenzyl) nicotinamide] | 5.00 to 6.00 | > 7.00
4 | N#Cc1cnc(NCc2ccc(-c3cnc(N)cn3)cc2)c(C(=O)NCc2ccc(F)cc2)c1 [Example 378, 2-(4-(5-aminopyrazin-2-yl)benzylamino)-5-cyano-N-(4-fluorobenzyl) nicotinamide] | 5.00 to 6.00 | > 7.00
5 | C[C@H](NC(=O)c1cccnc1NCc1ccc(-c2cnc(N)cn2)cc1)c1ccc(F)c(F)c1 [Example 380, (S)-2-(4-(5-aminopyrazin-2-yl)benzylamino)-N-(1-(3,4-difluorophenyl)ethyl) nicotinamide] | 5.00 to 6.00 | 6.00 to 7.00
6 | Nc1cnc(-c2ccc(CNc3nccc4ncn(Cc5ccc(F)c(F)c5)c(=O)c34)cc2)cn1 [Example 381, 5-(4-(5-aminopyrazin-2-yl)benzylamino)-3-(3,4-difluorobenzyl)pyrido[4,3-d] pyrimidin-4(3H)-one] | 5.00 to 6.00 | > 7.00
7 | C[C@H](NC(=O)c1cccnc1NCc1ccc(-c2ccc3ncnc(NC4CC4)c3c2)s1)c1ccc(F)c(F)c1 [Example 386, 2-{[5-(4-Cyclopropylamino-quinazolin-6-yl)-thiophen-2-ylmethyl]-amino}-N-[(S)-1-(3,4-difluoro-phenyl)-ethyl]-nicotinamide] | 5.00 to 6.00 | > 7.00
8 | C[C@H](NC(=O)c1cccnc1NCc1ccc(-c2ccc3ncnc(N4CCC4)c3c2)s1)c1ccc(F)c(F)c1 [Example 387, 2-{[5-(4-Azetidin-1-yl-quinazolin-6-yl)-thiophen-2-ylmethyl]-amino}-N-[(S)-1-(3,4-difluoro-phenyl)-ethyl]-nicotinamide] | 5.00 to 6.00 | > 7.00
9 | C[C@H](NC(=O)c1cc(C#N)cnc1NCc1ccc(Oc2ccnc(N)c2)cc1)c1ccc(F)cc1 [Example 388] | < 5.00 | < 5.30
10 | C[C@H](NC(=O)c1nccnc1NCc1ccc(-c2cnc3[nH]ncc3c2)cc1)c1ccc(F)cc1 [Example 391, 3-[4-(1H-Pyrazolo[3,4-b]pyridin-5-yl)-benzylamino]-pyrazine-2-carboxylic acid [(S)-1-(4-fluoro-phenyl)-ethyl]-amide] | 5.00 to 6.00 | > 7.00
11 | C[C@H](NC(=O)c1cccnc1NCc1ccc(-c2cnc3[nH]ncc3c2)cc1)c1ccc(F)cc1 [Example 392, N-[(S)-1-(4-Fluoro-phenyl)-ethyl]-2-[4-(1H-pyrazolo [3,4-b]pyridin-5-yl)-benzylamino]-nicotinamide] | 5.00 to 6.00 | > 7.00
12 | O=C(NCc1ccc(F)cc1)c1cccnc1NCc1ccc(-c2cnc3[nH]ncc3c2)cc1 [Example 393, 2-(4-(1H-pyrazolo[3,4-b]pyridin-5-yl)benzylamino)-N-(4-fluorobenzyl) nicotinamide] | 5.00 to 6.00 | > 7.00
13 | C[C@H](NC(=O)c1nc(C#N)cnc1NCc1ccc(-c2cn(CCN(C)C)c3ncnc(N)c23)cc1)c1ccc(F)c(F)c1 [Example 398, (S)-3-(4-(4-amino-7-(2-(dimethylamino)ethyl)-7H-pyrrolo[2,3-d]pyrimidin-5-yl)benzylamino)-6-cyano-N-(1-(3,4-difluorophenyl)ethyl)pyrazine-2-carboxamide] | 5.00 to 6.00 | > 7.00
14 | Cc1nc2[nH]nc(N)c2cc1-c1ccc(CNc2ncc(C#N)nc2C(=O)N[C@@H](C)c2ccc(F)c(F)c2)cc1 [Example 400, (S)-3-(4-(3-amino-6-methyl-1H-pyrazolo[3,4-b]pyridin-5-yl)benzylamino)-6-cyano-N-(1-(3,4-difluorophenyl)ethyl)pyrazine-2-carboxamide] | 5.00 to 6.00 | > 7.00
15 | C[C@@H](Nc1ncc(C(F)(F)F)cc1C(=O)Nc1ccc(F)cc1)c1ccc(-c2cn(C)c3ncnc(N)c23)cc1 [Example 403, (R)-2-(1-(4-(4-amino-7-methyl-7H-pyrrolo[2,3-d]pyrimidin-5-yl)phenyl)ethylamino)-N-(4-fluoro-phenyl)-5-(trifluoromethyl) nicotinamide] | 5.00 to 6.00 | > 7.00

Other lines, results leading:

Row | pEC50 [1] | pIC50 (PDK1) | Compound
16 | 5.00 to 6.00 | 5.30 to 6.00 | Nc1ccc(-c2ccc(CNc3ncccc3C(=O)NCc3cncc(F)c3)cc2)cn1 [Example 373, 2-(4-(6-aminopyridin-3-yl)benzylamino)-N-((5-fluoropyridin-3-yl)methyl)nicotinamide]
17 | > 6.00 | > 7.00 | C[C@H](NC(=O)c1nc(C#N)cnc1NCc1ccc(-c2cnc(N)cn2)cc1)c1ccc(F)c(F)c1 [Example 376, (S)-3-(4-(5-aminopyrazin-2-yl)benzylamino)-6-cyano-N-(1-(3,4-difluorophenyl)ethyl)pyrazine-2-carboxamide]
18 | > 6.00 | > 7.00 | C[C@H](NC(=O)c1cc(C(F)(F)F)cnc1NCc1ccc(-c2cnc(N)cn2)cc1)c1ccc(F)cc1 [Example 379, (S)-2-(4-(5-aminopyrazin-2-yl)benzylamino)-N-(1-(4-fluorophenyl)ethyl)-5-(trifluoromethyl)nicotinamide]
19 | > 6.00 | > 7.00 | C[C@H](NC(=O)c1cc(C(F)(F)F)cnc1NCc1ccc(-c2cnc(N)cn2)cc1)c1ccc(F)c(F)c1 [Example 382, (S)-2-(4-(5-aminopyrazin-2-yl)benzylamino)-N-(1-(3,4-difluorophenyl)ethyl)-5-(trifluoromethyl)nicotinamide]
20 | > 6.00 | > 7.00 | Nc1cnc(-c2ccc(CNc3ncc(C(F)(F)F)cc3C(=O)NCc3ccc(F)cc3)cc2)cn1 [Example 383, 2-(4-(5-aminopyrazin-2-yl)benzylamino)-N-(4-fluorobenzyl)-5-(trifluoromethyl)nicotinamide]
21 | > 6.00 | > 7.00 | Cn1cnc2cnc3ccc(-c4cnc(CNc5ncccc5C(=O)NCc5ccc(F)c(F)c5)s4)cc3c21 [Example 384, N-(3,4-Difluoro-benzyl)-2-{[5-(1-methyl-1H-imidazo [4,5-c]quinolin-8-yl)-thiazol-2-ylmethyl]-amino}-nicotinamide]
22 | > 6.00 | > 7.00 | C[C@H](NC(=O)c1cccnc1NCc1ncc(-c2ccc3ncc4ncn(C)c4c3c2)s1)c1ccc(F)c(F)c1 [Example 385, N-[(S)-1-(3,4-Difluoro-phenyl)-ethyl]-2-{[5-(1-methyl-1H-imidazo[4,5-c]quinolin-8-yl)-thiazol-2-ylmethyl]-amino}-nicotinamide]
23 | > 6.00 | > 7.00 | C[C@H](NC(=O)c1nc(C#N)cnc1NCc1ccc(-c2cnc3[nH]ncc3c2)cc1)c1ccc(F)cc1 [Example 389, 6-Cyano-3-[4-(1H-pyrazolo [3,4-b]pyridin-5-yl)-benzylamino]-pyrazine-2-carboxylic acid [(S)-1-(4-fluoro-phenyl)-ethyl]-amide]
24 | > 6.00 | > 7.00 | C[C@H](NC(=O)c1nc(C#N)cnc1NCc1ccc(-c2cnc3[nH]ncc3c2)cc1)c1ccc(F)c(F)c1 [Example 390, 6-Cyano-3-[4-(1H-pyrazolo [3,4-b]pyridin-5-yl)-benzylamino]-pyrazine-2-carboxylic acid [(S)-1-(3,4-difluoro-phenyl)-ethyl]-amide]
25 | > 6.00 | > 7.00 | C[C@H](NC(=O)c1cc(C(F)(F)F)cnc1NCc1ccc(-c2cnc3[nH]ncc3c2)cc1)c1ccc(F)c(F)c1 [Example 394, N-[(S)-1-(3,4-Difluoro-phenyl)-ethyl]-2-[4-(1H-pyrazolo [3,4-b]pyridin-5-yl)-benzylamino]-5-trifluoromethyl-nicotinamide]
26 | > 6.00 | > 7.00 | C[C@H](NC(=O)c1cc(C#N)cnc1NCc1ccc(-c2cnc3[nH]ncc3c2)cc1)c1ccc(F)c(F)c1 [Example 395, 5-Cyano-N-[(S)-1-(3,4-difluoro-phenyl)-ethyl]-2-[4-(1H-pyrazolo[3,4-b]pyridin-5-yl)-benzylamino]-nicotinamide]
27 | > 6.00 | > 7.00 | N#Cc1cnc(NCc2ccc(-c3cnc4[nH]ncc4c3)cc2)c(C(=O)NCc2ccc(F)cc2)c1 [Example 397, 5-Cyano-N-(4-fluoro-benzyl)-2-[4-(1H-pyrazolo[3,4-b]pyridin-5-yl)-benzylamino]-nicotinamide]
28 | > 6.00 | > 7.00 | C[C@H](NC(=O)c1nc(C#N)cnc1N[C@H](C)c1ccc(-c2cn(C)c3ncnc(N)c23)cc1)c1ccc(F)c(F)c1 [Example 399, 3-((R)-1-(4-(4-amino-7-methyl-7H-pyrrolo[2,3-d]pyrimidin-5-yl)phenyl)ethylamino)-6-cyano-N-((S)-1-(3,4-difluorophenyl)ethyl)pyrazine-2-carboxamide]
29 | > 6.00 | > 7.00 | C[C@H](NC(=O)c1nc(C#N)cnc1N[C@H](C)c1ccc(-c2c[nH]c3ncnc(N)c23)cc1)c1ccc(F)c(F)c1 [Example 402, 3-((R)-1-(4-(4-amino-7H-pyrrolo[2,3-d]pyrimidin-5-yl)phenyl)ethylamino)-6-cyano-N-((S)-1-(3,4-difluorophenyl)ethyl)pyrazine-2-carboxamide]
